The record followed here is patent US20250228865A1, “COMPOUNDS FOR ENHANCING READ THROUGH OF GENES CONTAINING PREMATURE TERMINATION CODONS AND METHODS FOR MAKING AND USING THE SAME” (Sanofi US Services Inc., priority 2022, published 2025).

The subject of test [1] is recombinant human CFTR carrying the premature stop codon (PTC) mutation G542X. Kind of test: CFTR-PTC mutant translation readthrough, Nanoluc tagged CFTR luminescence (G542X cell line). Format: cell-based. Conditions: in combination with G418, G542X cell line; for EC50: 16HBE cells; for CFTR G542X ACTIVITY Fold 10 μM G-418: fold over 10 μM G-418. Put shortly: (§1)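 Readthrough is the 48 h compound-induced luminescence increase scaled to that of maximal G418 (125-250 μM). Compounds run from 50 μM final in 2-fold steps, ±10 μM G418, on 16HBE lines carrying Nanoluc-tagged CFTR G542X (extracellular loop 4 tag) or R1162X (C-terminal tag), with 3 μM VX-809 present.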

The subject of test [2] is recombinant human CFTR carrying the premature stop codon (PTC) mutation R1162X. Kind of test: CFTR-PTC mutant translation readthrough, Nanoluc tagged CFTR luminescence (R1162X cell line). Format: cell-based. Conditions: for EC50: in combination with G418, 16HBE cells, read-out: CFTR R1162X ACTIVITY EC50; for CFTR R1162X ACTIVITY Fold 10 μM G-418: fold over 10 μM G-418, in combination with G418. Put shortly: as §1

Broadly, the EC50 is the concentration at which the effect is half-maximal. Turning to `O=C1OC(CO)CN1c1ncc(CCc2c(Cl)cccc2Cl)cn1` (stereo not drawn), the EC50 in test [1] and in test [2] was above 10 µM in each case.

Consider `O=C1NC2(CCCC2)C(=O)N1c1ncc(OCc2c(Cl)cccc2Cl)cn1`, for which, in test [1], the “CFTR G542X ACTIVITY Fold 10 μM G-418” value is given as “A′ (A′ = ≥10X)” and the EC50 was in the range of 1 to 10 µM. Moreover, in test [2], the “CFTR R1162X ACTIVITY Fold 10 μM G-418” value is recorded as “A′ (A′ = ≥10X)” and the EC50 was above 10 µM.

Take `FC(F)(F)c1cccc(Cl)c1COc1cnc(-n2cc(-c3ccccn3)nn2)nc1`: in test [1], the “CFTR G542X ACTIVITY Fold 10 μM G-418” value is on record as “A′ (A′ = ≥10X)” and the EC50 is below 1 µM. In test [2], the “CFTR R1162X ACTIVITY Fold 10 μM G-418” value is recorded as “A′ (A′ = ≥10X)” and the EC50 was below 1 µM.

Take `OCC1CN(c2ncc(OCc3c(F)cccc3C(F)(F)F)cn2)CCO1` (stereo not drawn): in test [1], the “CFTR G542X ACTIVITY Fold 10 μM G-418” value is “A′ (A′ = ≥10X)” and the EC50 lay within 1 to 10 µM. In addition, in test [2], the “CFTR R1162X ACTIVITY Fold 10 μM G-418” value was “A′ (A′ = ≥10X)” and the EC50 fell in the range of 1 to 10 µM.

`NC(=O)N1CCN(c2ncc(OCc3c(Cl)cccc3C(F)(F)F)cn2)CC1`: in test [1], the “CFTR G542X ACTIVITY Fold 10 μM G-418” value is given as “A′ (A′ = ≥10X)” and the EC50 was below 1 µM. In addition, in test [2], the “CFTR R1162X ACTIVITY Fold 10 μM G-418” value is reported as “A′ (A′ = ≥10X)” and the EC50 is below 1 µM.

For the compound `COc1ccc(CN2C(=O)CN(c3ccc(OCc4c(C)cccc4C(F)(F)F)cc3)C2=O)cc1`, in test [1], the “CFTR G542X ACTIVITY Fold 10 μM G-418” value is on record as “B′ (B′ = ≥5X to <10X)” and the EC50 was 1 to 10 µM. Further, in test [2], the “CFTR R1162X ACTIVITY Fold 10 μM G-418” value is “B′ (B′ = ≥5X to <10X)” and the EC50 lay within 1 to 10 µM.

As to `Clc1cccc(Cl)c1COc1cnc(N2CC3CC2CO3)nc1` (stereo not drawn), in test [1], the “CFTR G542X ACTIVITY Fold 10 μM G-418” value is recorded as “A′ (A′ = ≥10X)” and the EC50 fell in the range of 1 to 10 µM. Further, in test [2], the “CFTR R1162X ACTIVITY Fold 10 μM G-418” value was “A′ (A′ = ≥10X)” and the EC50 lay in the range of 1 to 10 µM.

For `Cc1cccc(C(F)(F)F)c1COc1cnc(N2CC[C@@H](C(N)=O)C2)nc1`, in test [1], the “CFTR G542X ACTIVITY Fold 10 μM G-418” value was “A′ (A′ = ≥10X)” and the EC50 lay within 1 to 10 µM. Besides, in test [2], the “CFTR R1162X ACTIVITY Fold 10 μM G-418” value is “A′ (A′ = ≥10X)” and the EC50 was 1 to 10 µM.

For the compound `Cc1cccc(C(F)(F)F)c1COc1ccc2nc(CO)cn2c1`, in test [1], the “CFTR G542X ACTIVITY Fold 10 μM G-418” value is reported as “A′ (A′ = ≥10X)” and the EC50 is above 10 µM. Moreover, in test [2], the “CFTR R1162X ACTIVITY Fold 10 μM G-418” value is recorded as “A′ (A′ = ≥10X)” and the EC50 was above 10 µM.

Regarding `OCc1cn(-c2ccc(OCc3c(Cl)cccc3C(F)(F)F)cc2)nn1` [[1-[4-[[2-chloro-6-(trifluoromethyl)phenyl]methoxy]phenyl]triazol-4-yl]methanol], in test [1], the “CFTR G542X ACTIVITY Fold 10 μM G-418” value is “A′ (A′ = ≥10X)” and the EC50 fell in the range of 1 to 10 µM. In addition, in test [2], the “CFTR R1162X ACTIVITY Fold 10 μM G-418” value is “A′ (A′ = ≥10X)” and the EC50 is 1 to 10 µM.

Take `CC(=O)N[C@H](CO)C(=O)Nc1ccc(OCc2c(Cl)cccc2Cl)cn1`: in test [1], the “CFTR G542X ACTIVITY Fold 10 μM G-418” value is “C′ (C′ = <5X)” and the EC50 was above 10 µM. In test [2], the “CFTR R1162X ACTIVITY Fold 10 μM G-418” value is listed as “C′ (C′ = <5X)” and the EC50 was above 10 µM.

`OCCC1CCN(c2ncc(OCc3c(Cl)cccc3Cl)cn2)CC1` [2-[1-[5-[(2,6-dichlorophenyl)methoxy]pyrimidin-2-yl]-4-piperidyl]ethanol]: in test [1], the “CFTR G542X ACTIVITY Fold 10 μM G-418” value is “A′ (A′ = ≥10X)” and the EC50 was below 1 µM. For the same compound, in test [2], the “CFTR R1162X ACTIVITY Fold 10 μM G-418” value is “B′ (B′ = ≥5X to <10X)” and the EC50 fell in the range of 1 to 10 µM.

Take `Cc1cccc(C(F)(F)F)c1COc1ccc(-n2cnc(CN)n2)cc1`: in test [1], the “CFTR G542X ACTIVITY Fold 10 μM G-418” value is “A′ (A′ = ≥10X)” and the EC50 is below 1 µM. Moreover, in test [2], the “CFTR R1162X ACTIVITY Fold 10 μM G-418” value was “A′ (A′ = ≥10X)” and the EC50 lay in the range of 1 to 10 µM.

For the compound `NC(=O)C1CCCN(c2ncc(OCc3c(Cl)cccc3Cl)cn2)C1` (stereo not drawn) [1-[5-[(2,6-dichlorophenyl)methoxy]pyrimidin-2-yl]piperidine-3-carboxamide], in test [1], the “CFTR G542X ACTIVITY Fold 10 μM G-418” value was “A′ (A′ = ≥10X)” and the EC50 is below 1 µM. Also, in test [2], the “CFTR R1162X ACTIVITY Fold 10 μM G-418” value is given as “A′ (A′ = ≥10X)” and the EC50 is below 1 µM.
